Source: paper PMC9537572, “Elucidation of the binding mechanism of astragaloside IV derivative with human serum albumin and its cardiotoxicity in zebrafish embryos” (Frontiers in Pharmacology, 2022)

Target: HSA (Homo sapiens, UniProt P02768)
Assay: Plasma protein binding rate by equilibrium dialysis and UHPLC-MS/MS
Format: in vitro ADME
Description: The binding rate of AGS IV/LS-102 and HSA was determined using a slightly modified equilibrium dialysis method ([Metsu et al., 2020]). […] The stock solutions of HSA (0.5 ml) and drug group (0.5 ml) were placed in a dialysis membrane bag that was ligated at both ends and then immersed in a test tube filled with 50 ml of PBS solution for 72 h at 4 °C. After equilibrium, a 0.5-ml solution of outer dialysate and internal dialysate was collected into a 2-ml EP tube, and 10 µL IS (digoxin, 0.1 mg/ml) solution was added to each tube. Both samples were added to 1.5 ml of acetonitrile and vortexed for 3 min, and then the samples were separated via centrifugation at 18,000 × g for 20 min. The supernatants were transferred to another EP tube and dried under a nitrogen stream. The residue was redissolved in 1 ml methanol, sonicated for 2 min, vortexed for 3 min, and centrifuged at 18,000 × g for 10 min. The supernatant was filtered with a 0.22 µm microporous syringe filter in a 2 ml sample vial, and 1 µL was injected into the UHPLC-MS/MS system for analysis. The plasma protein binding rate was calculated according to the following formula ([Talbert et al., 2002]): Plasma binding rate=Internal drug concentration−External drug concentration/Initial drug concentration ×100%

Sequence of HSA (P02768 25-609): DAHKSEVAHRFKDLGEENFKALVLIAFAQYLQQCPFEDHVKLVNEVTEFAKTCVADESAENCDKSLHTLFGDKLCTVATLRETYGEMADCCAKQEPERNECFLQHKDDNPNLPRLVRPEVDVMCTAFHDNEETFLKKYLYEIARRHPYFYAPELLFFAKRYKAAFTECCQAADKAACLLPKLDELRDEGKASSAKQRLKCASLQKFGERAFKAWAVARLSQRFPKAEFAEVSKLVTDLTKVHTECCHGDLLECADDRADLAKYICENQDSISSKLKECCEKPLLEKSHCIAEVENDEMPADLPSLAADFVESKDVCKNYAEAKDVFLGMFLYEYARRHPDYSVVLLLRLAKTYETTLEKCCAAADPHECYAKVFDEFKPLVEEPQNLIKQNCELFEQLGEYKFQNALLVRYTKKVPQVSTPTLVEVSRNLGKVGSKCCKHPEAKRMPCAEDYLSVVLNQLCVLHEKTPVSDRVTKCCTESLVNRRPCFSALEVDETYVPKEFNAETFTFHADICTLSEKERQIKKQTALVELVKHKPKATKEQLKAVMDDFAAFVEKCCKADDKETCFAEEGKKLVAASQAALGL

CC(C)(O)C1CCC(C)(C2C(O)CC3(C)C4CC(OC5OC(C(=O)O)C(O)C(O)C5O)C5C(C)(C)C(OC6OCC(O)C(O)C6O)CCC56CC46CCC23C)O1 (centres unmarked) [LS-102, astragalosidic acid] was tested. Which “Plasma protein binding rate, range over the concentrations” value (across the three concentrations (0.238-0.714 mg/ml)) did it give?
The value was 68.24%–69.35.

And the fraction unbound at 72 h (human, plasma, across the three concentrations (0.238-0.714 mg/ml), read-out: Plasma protein binding rate, range over the concentrations)?
Its fraction unbound at 72 h is 0.306 to 0.331.

And the fraction unbound at 72 h, 0.238 mg/ml (human, drug 0.238 mg/ml, equilibrium dialysis 72 h at 4 °C, n = 3, read-out: Protein binding rate (%, Mean±SD) (converted))?
The fraction unbound at 72 h, 0.238 mg/ml was 0.318.

And the fraction unbound at 72 h, 0.476 mg/ml (human, drug 0.476 mg/ml, equilibrium dialysis 72 h at 4 °C, n = 3, read-out: Protein binding rate (%, Mean±SD) (converted))?
Its fraction unbound at 72 h, 0.476 mg/ml is 0.306.

And the fraction unbound at 72 h, 0.714 mg/ml (human, drug 0.714 mg/ml, equilibrium dialysis 72 h at 4 °C, n = 3, read-out: Protein binding rate (%, Mean±SD) (converted))?
Its fraction unbound at 72 h, 0.714 mg/ml is 0.314.
